Source: article PMC4492750, “The discovery of a selective and potent A2a agonist with extended lung retention” (Pharmacology Research & Perspectives, 2015)
Entries after “also recorded” stand apart in the source; their conditions may differ.

What was measured:
A3 [1] = target: T1, A3 (Homo sapiens, UniProt P0DMS8); test: Selectivity panel of 98 targets in binding assays (Ricerca): A3; set-up: Ricerca (contract panel); settings: 10 μmol/L of compound; data on AstraZeneca file
T1 sequence (P0DMS8 1-318): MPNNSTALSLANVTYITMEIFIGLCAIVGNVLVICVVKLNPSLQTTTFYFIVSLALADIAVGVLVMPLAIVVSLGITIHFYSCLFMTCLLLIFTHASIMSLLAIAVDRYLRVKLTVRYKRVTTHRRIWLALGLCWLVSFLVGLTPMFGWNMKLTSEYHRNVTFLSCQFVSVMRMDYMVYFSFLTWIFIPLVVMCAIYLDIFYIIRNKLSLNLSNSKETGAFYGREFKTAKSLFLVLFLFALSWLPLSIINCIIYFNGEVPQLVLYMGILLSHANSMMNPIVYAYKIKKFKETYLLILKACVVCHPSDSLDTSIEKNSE
Method: The medicinal chemistry synthetic optimization focused on the position C2 and N6 (Fig.2) with the aim to discover a compound with high A2a potency, high selectivity, low lipophilicity (logD), and high solubility. […] Selectivity of compound 2 was tested across 98 targets in binding assays (www.ricerca.com). The only identified significant hits (i.e., >50% effect at 10 μmol/L of compound 2) were A2a (∼100%) and A3 (∼84%) data on AstraZeneca file.

A3 [2] = target: T1, A3; test: Human A3 receptor pharmacology: GTPγ35[S] filter assay on membranes; type: biochemical; set-up: purchased Perkin Elmer ES-012-M400UA; settings: average (SD)
Method: (§1) • Human A2a and A2b receptor pharmacology: Chinese hamster ovary CHO-K1 cells stably expressing human A2a and A2b receptors were used to determine substances agonistic potency and intrinsic activity. […] The signal corresponding to adenosine at 100 μmol/L was used to define 100% intrinsic activity. • Human A3 receptor pharmacology: A3 receptor Gi coupling was measured by GTPγ ^35[S] filter assay at serial dilutions of compound using membranes from Perkin-Elmer. The signal corresponding to the maximal response of NECA at 100 μmol/L was set to 100% intrinsic activity. • Lipopolysaccharide (LPS)-induced TNFα production in primary human peripheral blood mononuclear cells (hTNFα PBMC) and rat mononuclears (rTNFα splenocytes): Human PBMC and rat mononuclear spleen cells were incubated with serial dilutions of compound and stimulated with LPS.
A3 receptor Gi coupling was measured by GTPγ ^35[S] filter assay using membrane from Perkin Elmer (ES-012-M400UA). Membranes (7.5μg/ml final concentration) were incubated with substances in serial dilutions (50mM Hepes, pH 7.4, 5mM MgCl2, 100mM NaCl, 0.01% BSA, 100μM DTT and 25μM GDP) including 1nM of GTPγ ^35[S] (Perkin Elmer - NEG030H) for 2h in room temperature in the assay plate (Corning – 3365). […] After adding 50µl scintillant/well, sealed plates were counted. […]

adenosine A1 receptor = target: T2, adenosine A1 receptor (Homo sapiens, UniProt P30542); test: Human A1 receptor pharmacology: GTPγ35[S] assay on membranes; type: biochemical; settings: average (SD)
T2 construct: purchased Perkin Elmer ES-010-M400UA
T2 sequence (P30542 1-326): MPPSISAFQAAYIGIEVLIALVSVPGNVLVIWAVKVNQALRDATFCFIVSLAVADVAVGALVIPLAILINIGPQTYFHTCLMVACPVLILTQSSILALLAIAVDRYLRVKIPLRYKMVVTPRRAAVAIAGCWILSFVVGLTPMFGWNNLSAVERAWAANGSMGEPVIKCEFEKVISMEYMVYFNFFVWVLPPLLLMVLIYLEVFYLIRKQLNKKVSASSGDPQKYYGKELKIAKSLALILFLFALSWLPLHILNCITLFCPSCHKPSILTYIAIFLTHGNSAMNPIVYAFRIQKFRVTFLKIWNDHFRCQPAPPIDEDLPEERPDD
Method: as §1
The A1 receptor Gi coupling was measured by a scintillation proximity (SPA) GTPγ ^35[S] assay. Membranes (12.5μg/ml final concentration) were incubated with substances in serial dilutions (50mM Hepes, pH 7.4, 1mM MgCl2, 100mM NaCl, 0.01% BSA, 50μg/ml saponin and 2.5μM GDP) including 1mg/ml Scintillation Beads (Wheat Germ Agglutinin PVT SPA, Perkin Elmer - Rpnq0001), 0.3nM of GTPγ ^35[S] (Perkin Elmer - NEG030H) and counts were read after 16h incubation at 4 °C. The signal corresponding to adenosine at 100μM was used to define 100% efficacy.

heart = test: Investigative rat toxicology study (heart histopathology); type: in vivo
Method: Rats were intratracheally administrated with compound 2 at 150µg/kg and terminated 24 hours after dosing. Rats in the repeated dose groups received compound 2 at dose level of 1 or 30µg/kg for 4 consecutive days and were terminated 24 hours after the last dose.
The animals were sacrificed by exsanguinations from the common carotid artery under isoflurane anesthesia. The external features were inspected and body weights recorded. The lung together with lower part of the trachea was excised from the thoracic cavity, weighed, and inflated with Formalin via the trachea. Other core organs (heart, kidneys, liver and spleen) were also macroscopically examined, weighed and fixed in buffered Formalin. The collected organs were trimmed and processed to paraffin blocks, sectioned (4µm) and stained with Hematoxylin Eosin (HE) for microscopic examination. Additional heart sections from each animal were collected for immunohistochemistry of Troponin T (see below) and for Masson's Trichrome stain.
The IHC was performed by using Ventanan Discovery XT automated slide processing system, according to the manufacturer’s instructions. In brief, after the antigen retrieval process (Std CC1), the Troponin T antibody (Thermo Scientific, MS-295-P1 diluted 1:50 in Antibody Diluent) was applied on the sections for 60 minutes, followed by incubation with rabbit monoclonal anti-mouse (Epitomics catalog no 3021-1) for 60 minutes and a polymer OmniMap-anti-rabbit HRP Multimer for 16 minutes. The reaction was visualized by using ChromoMap DAB kit. The slides were dehydrated in rising concentration of ethanol, cleared in xylene in an Automatic slide strainer (Sakura, US) and mounted manually with Mountex (00842, Histolab Products AB, Sweden).

Effect in binding assay, A3 (A3 [1]): ~84%
EC50 (A3 [2]): 6.6 µM
EC50 (adenosine A1 receptor): 2.1 µM
SMILES: CCNC(=O)[C@H]1O[C@@H](n2cnc3c(NC(CC)CC)nc(NCCNC(=O)Nc4cc[n+](C)cc4)nc32)[C@H](O)[C@@H]1O [Compound 2, (2S,3S,4R,5R)-N-ethyl-5-[6-(1-ethylpropylamino)-2-[2-[(1-methylpyridin-1-ium-4-yl)carbamoylamino]ethylamino]purin-9-yl]-3,4-dihydroxy-tetrahydrofuran-2-carboxamide]
Heart changes (heart; 1 μg/kg i.t. for 4 days): No changes were observed
Multifocal scar tissue (dense granulation) in heart (heart; 30 μg/kg i.t. for 4 days): three out of five; also recorded: multifocal dense scar tissue in the heart but no acute myocardial necrosis
Dose level with histopathological heart lesions relative to efficacious dose in inflammatory rat lung model (heart; 30 μg/kg vs 10 μg/kg i.t.): threefold
Heart weight relative to body weight (heart; single dose of 150 μg/kg or repeated doses of 30 μg/kg): slightly increased
Multifocal myocardial necrosis (heart; single i.t. dose 150 μg/kg, one day after dose): four of five; also recorded: caused multifocal myocardial necrosis
